According to patent US20210032257A1, “(E)-1-(4-(DIMETHYLAMINO)BUT-2-ENOYL)PYRROLIDIN-3-YL 4-((3-ISOPROPYL-5-METHYLPYRAZOLO[1,5-A]PYRIMIDIN-7-YL)AMINO)PIPERIDINE-1-CARBOXYLATE FOR INHIBITING CDK7” (Eli Lilly and Company, priority 2017, published 2021):

Assays:
cMyc in HCT116 cells = experiment: cMyc cell based Acumen assay; settings: Homo sapiens, HCT-116, 4 hours, read-out: Relative IC50 for cMyc
MIAPACA2 xenograft = experiment: Xenograft Tumor Model; assay type: in vivo, mice; settings: MIAPACA2, Pancreatic, ARID1A; 20 mg/kg PO QDx35
Method: (§1) To evaluate in vivo efficacy of a test compound, multiple xenograft tumor models are utilized. Briefly, 5-10×10^6 tumor cells in a 1:1 MATRIGEL® mix (0.2 mL total volume) are injected subcutaneously into the female athymic nude mice (Envigo, Harlan laboratories) for a majority of xenograft tumor models. Alternate mice strains are utilized to establish MDAMB468 (NOD SCID Gamma, Jackson labs), CT26 and EMT6 (BALB/c, Envigo, Harlan Laboratories) xenografts. After allowing tumors to reach a desired size of ˜300-500 mm^3, animals are randomized into groups of 6-8 for efficacy studies. Test compound is administered via oral gavage (PO) at indicated doses and regimens. Tumor growth and body weight are monitored over time to evaluate efficacy and signs of toxicity.
(§2) Test compound is formulated in 5% N-methyl-2-pyrrolidone (NMP) in 1% hydroxyethylcellulose, 0.25% polysorbate 80, 0.05% antifoam in purified water (HEC) and administered by oral gavage (final volume 0.2 mL) at the doses indicated in Table 4. A test compound is formulated on a weekly basis and stored at 4° C. Vehicles are administered to the control groups according the schedules used above using a volume of 0.2 mL per dose. Mice are dosed via oral gavage and tumor samples are collected at termination and stored at −80° C.
(§3) Tumor size and body weight are recorded and analyzed bi-weekly. Blood is collected using DBS (dried blood spot) card 2 hours after dose and at termination. Tumors are collected at study termination, cut into 3 sections and either snap frozen for exposure and protein analysis, or placed in RNAlater® for RNA analysis. Tissue samples are frozen and stored at −80° C.
(§4) Delta T/C % is calculated when the endpoint tumor volume in a treated group is at or above baseline tumor volume. The formula is 100*(T−T0)/(C−C0). Here, T and C are mean endpoint tumor volumes in the treated or control group, respectively. TO and CO are mean baseline tumor volumes in those groups. *: Significant (p<0.05)

H460 xenograft = experiment: Xenograft Tumor Model; assay type: in vivo, mice; settings: H460, Lung, ARID1A; 20 mg/kg PO QDx35
Method: as §1, §2, §3, §4

EMT6 xenograft = experiment: Xenograft Tumor Model; assay type: in vivo, mice; settings: EMT6, Breast; BALB/c; 20 mg/kg PO QDx28
Method: as §1, §2, §3, §4

MDAMB468 xenograft = experiment: Xenograft Tumor Model; assay type: in vivo, mice; settings: MDAMB468, Breast, ARID1A, RB1; NOD SCID Gamma; 20 mg/kg PO QDx28
Method: as §1, §2, §3, §4

CT26 xenograft = experiment: Xenograft Tumor Model; assay type: in vivo, mice; settings: CT26, Colorectal; BALB/c; 20 mg/kg PO QDx24
Method: as §1, §2, §3, §4

A2780 xenograft = experiment: Xenograft Tumor Model; assay type: in vivo, mice; settings: A2780, Ovary, ARID1A; 20 mg/kg PO QDx35
Method: as §1, §2, §3, §4

HCT116 xenograft = experiment: Xenograft Tumor Model; assay type: in vivo, mice; settings: HCT116, Colorectal, KMT2C; 25 mg/kg PO QDx21
Method: as §1, §2, §3, §4

MKN45 xenograft = experiment: Xenograft Tumor Model; assay type: in vivo, mice; settings: MKN45, Stomach, KMT2C; 20 mg/kg PO QDx35
Method: as §1, §2, §3, §4

MDAMB231 xenograft = experiment: Xenograft Tumor Model; assay type: in vivo, mice; settings: MDAMB231, Breast; 20 mg/kg PO QDx35
Method: as §1, §2, §3, §4

H441 xenograft = experiment: Xenograft Tumor Model; assay type: in vivo, mice; settings: H441, Lung; 20 mg/kg PO QDx35
Method: as §1, §2, §3, §4

HCC1806 = experiment: Cell Proliferation Assay (CELL TITER GLO); assay type: cell-based; settings: Homo sapiens, 168 h; HCC1806, Breast Cancer, seven days
Method: (§5) Cell lines are plated at the density 5000 cells per well in 100 μL per well growth medium into a white 96-well cell culture plate. See Table 2 for cell line and culture medium information. Plates are incubated at 37° C. and 5% CO2. The following day, a serial dilution of the test compound is prepared by diluting the compound 1:3 in DMSO for 10 points. The DMSO plate is 1000× the final concentration. In addition to the CDK7 inhibitor, a DMSO alone column is included as a maximum growth control and 10 μM staurosporine final column is included as a maximum growth inhibition control. A 10× dilution plate is then prepared by adding 2 μL per well from the 1000×DMSO plate to 198 μL per well of OMEM (Life Technologies, Carlsbad, Calif., cat #31985-070). Cells are treated with indicated compound by adding 11 μL per well from the 10×OMEM plate to the cell plate containing 100 μL per well growth medium for a 1× final concentration. Plates are placed back into the incubator at 37° C. and 5% CO2. Seven days after compound addition, plates are removed from the incubator and allowed to equilibrate to RT. CELL TITER GLO® reagent is thawed at room temperature and then prepare by mixing one vial of assay buffer with one vial of substrate and swirl gently to mix. CELL TITER GLO® reagent is then added to the cell plate, 100 μL per well, and place on a Titer Plate Shaker at speed setting 2 for 15 minutes at room temperature. After 15 minute incubation on shaker, luminescence is read, 1 second per well, using a Wallac VICTOR2™. Nonlinear regression and sigmoidal dose-response curves are used to calculate the half maximal inhibitory concentration (IC50) with Graphpad Prism 6 software.

NCI-H446 = experiment: Cell Proliferation Assay (CELL TITER GLO); assay type: cell-based; settings: Homo sapiens, 168 h; NCI-H446, Lung Cancer, seven days
Method: as §5

NCI-H460 = experiment: Cell Proliferation Assay (CELL TITER GLO); assay type: cell-based; settings: Homo sapiens, 168 h; NCI-H460, Lung Cancer, seven days
Method: as §5

SNU-16 = experiment: Cell Proliferation Assay (CELL TITER GLO); assay type: cell-based; settings: Homo sapiens, 168 h; SNU-16, Gastric Cancer, seven days
Method: as §5

HCT116 = experiment: Cell Proliferation Assay (CELL TITER GLO); assay type: cell-based; settings: Homo sapiens, HCT-116, 168 h; HCT116, Colorectal Cancer, seven days
Method: as §5

A2780 = experiment: Cell Proliferation Assay (CELL TITER GLO); assay type: cell-based; settings: Homo sapiens, 168 h; A2780, Ovarian Cancer, seven days
Method: as §5

MCF7 = experiment: Cell Proliferation Assay (CELL TITER GLO); assay type: cell-based; settings: Homo sapiens, 168 h; MCF7, Breast Cancer, seven days
Method: as §5

SMILES: Cc1cc(NC2CCN(C(=O)O[C@H]3CCN(C(=O)/C=C/CN(C)C)C3)CC2)n2ncc(C(C)C)c2n1 [Example 1, [(3S)-1-[(E)-4-(dimethylamino)but-2-enoyl]pyrrolidin-3-yl] 4-[(3-isopropyl-5-methyl-pyrazolo[1,5-a]pyrimidin-7-yl)amino]piperidine-1-carboxylate]
- IC50 (cMyc in HCT116 cells): 82.8 nM
- Avg. ΔT/C (MIAPACA2 xenograft): 10%
- Avg. ΔT/C (H460 xenograft): 16%
- Avg. ΔT/C (EMT6 xenograft): 17%
- Avg. ΔT/C (MDAMB468 xenograft): −91%
- Avg. ΔT/C (CT26 xenograft): 52%
- Avg. ΔT/C (A2780 xenograft): −41%
- Avg. ΔT/C (HCT116 xenograft): −17%
- Avg. ΔT/C (MKN45 xenograft): 57%
- Avg. ΔT/C (MDAMB231 xenograft): −25%
- Avg. ΔT/C (H441 xenograft): 0%
- IC50 (HCC1806): 25.5 nM
- IC50 (NCI-H446): 14.2 nM
- IC50 (NCI-H460): 47.9 nM
- IC50 (SNU-16): 23.1 nM
- IC50 (HCT116): 46 nM
- IC50 (A2780): 26.5 nM
- IC50 (MCF7): 32 nM
